For experiment [1], the system named is Control BV2 cells. The experiment can be described thus: TNF-α production after antioxidant treatment, Control BV2 microglia (Meso-Scale Discovery immunoassay). The class given is cell-based, mouse. To be noted: 5 mM, 18 hours. As to the method: (§1) BV2 cells are a type of microglial cell line that was originally derived from a C57/B16 mouse. BV2 cells were immortalized by v-raf/v-myc J2 retrovirus.
(§2) The role of RGS10 in regulating a response to inflammatory and metabolic stresses was assessed in microglia cells. BV2 cells were grown in culture and RGS10 expression in BV2 cells was diminished by CRISPR/Cas9 RGS10 knockout methods. Control cells were obtained from CRISPR/Cas9 controls.
(§3) Control and RGS10 KD BV2 cells were allocated into 2 test conditions. The 2 test conditions were 1) Control (no treatment) 2) N-acetylcysteine (NAC) treatment (5 mM). NAC is an antioxidant precursor. NAC is a precursor of L-cysteine that results in biosynthesis of glutathione. Glutathione is a powerful, naturally occurring antioxidant. NAC also acts directly as a scavenger of free radicals, especially oxygen radicals, illustrating extensive antioxidant properties of NAC treatment. NAC treatment in cells leads to a reduction in reactive oxidative species (ROS).
(§4) Cultured cells were subjected to test conditions for 18 hours and then assayed for production of TNF-α using an immunoassay (Meso-Scale Discovery). Values for TNF-α production in Control and RGS10 KD BV2 cells under Condition 1) were scaled to value of 1.0. Values for TNF-α production after NAC treatment were represented as a % of change relative to Condition 1) levels and were graphed in FIG. 3.

For experiment [2], the system named is RGS10 KD BV2 cells. In words: TNF-α production after antioxidant treatment, RGS10 KD BV2 microglia (Meso-Scale Discovery immunoassay). The class given is cell-based, mouse. To be noted: 5 mM, 18 hours. How it is done:
as §1, §2, §3, §4

Turning to `CC(=O)N[C@@H](CS)C(=O)O` [NAC, N-acetylcysteine], the “TNF-α production after treatment vs no treatment” value in experiment [1] and in experiment [2] was “statistically significant reduction in level of TNF-α production” each time.
